Test results published in ChEMBL document CHEMBL1201862, “PubChem BioAssay data set” (2004).
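Cells were grown in 96-well plates and exposed to each compound for 48 hours at five concentrations; endpoints were interpolated linearly between bracketing concentrations, or set to the highest concentration if not reached. GI50 = concentration required for 50% inhibition of growth.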 Calls of active or inactive are those of the source. Cut-off read from the data, not from the text of the source: active = GI50 up to about 1.1 µM and inactive = higher.

How the values were obtained:
Assay in all cases: DTP human tumour cell line panel, 48 h
MDA-MB-435 = system: MDA-MB-435
SK-OV-3 = system: SK-OV-3
DU-145 = system: DU-145
NCI-H23 = system: NCI-H23
786-0 = system: 786-0
NCI/ADR-RES = system: NCI/ADR-RES
U-251 = system: U-251
PC-3 = system: PC-3
M14 = system: M14
OVCAR-4 = system: OVCAR-4
A498 = system: A498
HCC 2998 = system: HCC 2998
HOP-62 = system: HOP-62
SN12C = system: SN12C
UACC-62 = system: UACC-62
LOX IMVI = system: LOX IMVI
NCI-H522 = system: NCI-H522
SK-MEL-28 = system: SK-MEL-28
SF-539 = system: SF-539

Row | Structure (SMILES) | GI50 (MDA-MB-435) | GI50 (SK-OV-3) | GI50 (DU-145) | GI50 (NCI-H23) | GI50 (786-0) | GI50 (NCI/ADR-RES) | GI50 (U-251) | GI50 (PC-3) | GI50 (M14) | GI50 (OVCAR-4) | GI50 (A498) | GI50 (HCC 2998) | GI50 (HOP-62) | GI50 (SN12C) | GI50 (UACC-62) | GI50 (LOX IMVI) | GI50 (NCI-H522) | GI50 (SK-MEL-28) | GI50 (SF-539)
1 | COc1ccc(-c2nc(O)c3ccccc3n2)c(OC)c1 | > 100 µM (inactive) | > 100 µM (inactive) | > 100 µM (inactive) | > 100 µM (inactive) | > 100 µM (inactive) | > 100 µM (inactive) | > 100 µM (inactive) | > 100 µM (inactive) | > 100 µM (inactive) | > 100 µM (inactive) | > 100 µM (inactive) | > 100 µM (inactive) | > 100 µM (inactive) | > 100 µM (inactive) | > 100 µM (inactive) | – | – | – | –
2 | N#C[C@H](C(=O)c1ccccc1F)c1nc2ccccc2s1 | 39.8 µM (inactive) | 21.1 µM (inactive) | 42.6 µM (inactive) | 46.3 µM (inactive) | 31.2 µM (inactive) | 26.9 µM (inactive) | 33.3 µM (inactive) | 24.2 µM (inactive) | 21.8 µM (inactive) | – | 33 µM (inactive) | – | 20.5 µM (inactive) | 31.6 µM (inactive) | 50.8 µM (inactive) | 33 µM (inactive) | 15.5 µM (inactive) | 36.5 µM (inactive) | 20.7 µM (inactive)
3 | COc1ccc(NC(=O)C2=C(SC)C(=O)N=C2N)cc1 | > 100 µM (inactive) | > 100 µM (inactive) | > 100 µM (inactive) | > 100 µM (inactive) | > 100 µM (inactive) | > 100 µM (inactive) | > 100 µM (inactive) | > 100 µM (inactive) | – | > 100 µM (inactive) | > 100 µM (inactive) | > 100 µM (inactive) | > 100 µM (inactive) | – | > 100 µM (inactive) | > 100 µM (inactive) | – | > 100 µM (inactive) | –
4 | O=C1/C(=C/c2ccc(O)c(CN3CCCCC3)c2)CCC/C1=C\c1ccc(O)c(CN2CCCCC2)c1 | 4.66 µM (inactive) | 8.53 µM (inactive) | 4.4 µM (inactive) | 5.52 µM (inactive) | 3.52 µM (inactive) | 2.89 µM (inactive) | 5.22 µM (inactive) | 7.05 µM (inactive) | 16.1 µM (inactive) | 6.81 µM (inactive) | 12.8 µM (inactive) | 5.64 µM (inactive) | 5.04 µM (inactive) | 8.79 µM (inactive) | 16 µM (inactive) | 7.74 µM (inactive) | – | 13.3 µM (inactive) | –
5 | O=C(O)C(Cc1ccccc1)NCc1c(O)ccc2c(-c3ccccc3)cc(=O)oc12 (centres undefined) | > 100 µM (inactive) | > 100 µM (inactive) | > 100 µM (inactive) | > 100 µM (inactive) | > 100 µM (inactive) | > 100 µM (inactive) | > 100 µM (inactive) | > 100 µM (inactive) | > 100 µM (inactive) | > 100 µM (inactive) | – | > 100 µM (inactive) | > 100 µM (inactive) | > 100 µM (inactive) | > 100 µM (inactive) | > 100 µM (inactive) | > 100 µM (inactive) | > 100 µM (inactive) | > 100 µM (inactive)
6 | O=C(O)C1Cc2c([nH]c3ccccc23)C(CCCCO)N1 (centres undefined) | > 100 µM (inactive) | > 100 µM (inactive) | > 100 µM (inactive) | > 100 µM (inactive) | > 100 µM (inactive) | > 100 µM (inactive) | > 100 µM (inactive) | > 100 µM (inactive) | > 100 µM (inactive) | > 100 µM (inactive) | > 100 µM (inactive) | – | > 100 µM (inactive) | > 100 µM (inactive) | > 100 µM (inactive) | > 100 µM (inactive) | > 100 µM (inactive) | > 100 µM (inactive) | > 100 µM (inactive)
7 | COc1nc2sc3c(c2c(=O)n1CCCSSCCCn1c(OC)nc2sc4c(c2c1=O)CCCC4)CCCC3 | > 100 µM (inactive) | > 100 µM (inactive) | > 100 µM (inactive) | > 100 µM (inactive) | > 100 µM (inactive) | > 100 µM (inactive) | > 100 µM (inactive) | > 100 µM (inactive) | > 100 µM (inactive) | > 100 µM (inactive) | – | > 100 µM (inactive) | > 100 µM (inactive) | > 100 µM (inactive) | > 100 µM (inactive) | > 100 µM (inactive) | > 100 µM (inactive) | > 100 µM (inactive) | > 100 µM (inactive)
8 | COc1ccc2c(c1)CCc1[nH]c3ccccc3c1CCCC2 | > 10 µM (inactive) | > 10 µM (inactive) | > 10 µM (inactive) | > 10 µM (inactive) | > 10 µM (inactive) | > 10 µM (inactive) | > 10 µM (inactive) | > 10 µM (inactive) | > 10 µM (inactive) | > 10 µM (inactive) | – | > 10 µM (inactive) | > 10 µM (inactive) | > 10 µM (inactive) | > 10 µM (inactive) | > 10 µM (inactive) | > 10 µM (inactive) | > 10 µM (inactive) | > 10 µM (inactive)
9 | CCOC(=O)/C=C(/C(=O)OCC)n1cc(Cl)c(=O)n(CC(=O)OCC)c1=O | 4.95 µM (inactive) | > 25 µM (inactive) | 4.61 µM (inactive) | 5.74 µM (inactive) | 0.828 µM (active) | 8.95 µM (inactive) | 5.83 µM (inactive) | 4.76 µM (inactive) | 4.57 µM (inactive) | 6.03 µM (inactive) | 17.5 µM (inactive) | – | 22.4 µM (inactive) | 5.64 µM (inactive) | 4.53 µM (inactive) | 4.37 µM (inactive) | 1.45 µM (inactive) | 5.02 µM (inactive) | 5.04 µM (inactive)
10 | Cn1c(C(O)C2(c3cccnc3)SCCCS2)cc2ccccc21 (centres undefined) | 90.2 µM (inactive) | > 100 µM (inactive) | > 100 µM (inactive) | 47.8 µM (inactive) | > 100 µM (inactive) | > 100 µM (inactive) | > 100 µM (inactive) | 66.1 µM (inactive) | 89.7 µM (inactive) | 67.8 µM (inactive) | > 100 µM (inactive) | > 100 µM (inactive) | > 100 µM (inactive) | > 100 µM (inactive) | 88.3 µM (inactive) | > 100 µM (inactive) | – | > 100 µM (inactive) | –
11 | COc1c(O)cc(/C=C/c2cc(O)cc3c2[C@@]2(C(=O)O3)c3c(O)cc(O)cc3OC2c2cccc(O)c2)cc1O (some centres undefined) | 54.3 µM (inactive) | 28.2 µM (inactive) | 72.1 µM (inactive) | 81.7 µM (inactive) | 68.7 µM (inactive) | 26.4 µM (inactive) | 41.4 µM (inactive) | 51.8 µM (inactive) | 95.3 µM (inactive) | 19.6 µM (inactive) | 94.6 µM (inactive) | – | > 100 µM (inactive) | 19.2 µM (inactive) | 30.4 µM (inactive) | 43.7 µM (inactive) | 34.8 µM (inactive) | 35.2 µM (inactive) | 39.4 µM (inactive)
